The values that follow come from patent publication US20260151457A1, “Peptides and Fragments for Treating Diabetes and Associated Metabolic Diseases” (Betavive Ltd., priority 2024, published 2026).

The subject of data set [1] is STZ-treated mice. Description: Short term effects of a single IGF-2 injection on glucose and IGF-2 levels in STZ-treated mice. The data set is classed as in vivo. The method, then: More specifically, the top panel illustrates the drop in glucose blood levels in three STZ-treated mice after receiving a 800 μg/kg/day dose of IGF-2 over a 240 minute time course. […] IGF-2 is part of a complex system comprising IGF-1 and IGF-2 along with binding proteins, proteases and other interacting molecules. A single 800 μg/kg dose of IGF-2 injected intraperitoneally lowers hyperglycemic blood glucose levels of 300-500 mg/dl to a normal level (100-200 mg/dL) for periods of over four hours. Normoglycemia is maintained while total serum IGF-2 is reduced to very low levels. […] Without being bound by this theory, it is believed that a slow release of IGF-2 from a serum complex can maintain normal blood glucose levels.

Data set [2] concerns STZ-treated mice. Kind of data set: Serum insulin and c-peptide levels in STZ-treated mice four weeks after IGF-2 treatment. The data set is classed as in vivo. The following applies: four weeks post treatment. Here is the method: Fasting blood glucose levels (mg/dL) were determined using the Accu-Chek Performa glucometer (Roche Diagnostics, Mannheim, Germany). After approximately two weeks of stable hyperglycemia, C57BL/6 STZ mice received exogenous injections of recombinant human IGF-2 (0.3-12 mg/kg/day injection) intraperitoneally for 5-10 consecutive days. During post-treatment follow-up period and upon termination, mice were tested for: fasting glucose, body weight, glucose tolerance test (IPGTT), serum C-peptide level, serum insulin level, and full blood and histological analysis (CBC, Chemistry, Insulin IHC and H&E).
C-peptide is a biomarker used to assess pancreatic beta cell function and is normally produced in equimolar amounts to endogenous insulin. Leighton et al., A Practical Review of C-Peptide Testing in Diabetes, Diabetes Ther. 2017 June; 8 (3): 475-487.

A further data set relates to db/db mice. Description: 14 hour fasting blood glucose in db/db mice treated with IGF-2. The class given is in vivo. The method, then:
db/db mice are bred to have a leptin deficiency, increasing susceptibility of the mice to obesity, insulin resistance, and type 2 diabetes (T2D).
In this experiment, one group of db/db mice was injected with 3000 μg/kg/day of IGF-2 for 68 days, a second group of db/db mice was injected with 12000 μg/kg/day of IGF-2 for 66 days, and a third group of db/db mice was injected with saline once a day for 68 days.
In one experiment (left panel), one group of db/db mice was injected with a daily dose of 12000 μg/kg of IGF-2 divided in two injections per day for 70 days, while another group of db/db mice was injected with saline. […] In another experiment (right panel), one group of db/db mice was injected with a daily dose of 12000 μg/kg of IGF-2 divided in two injections per day for 35 days, while another group of db/db mice was injected with saline.
In one exemplary experiment, db/db mice were treated with a 12,000 μg/kg daily dose for 70 days with 70 days of follow up (during which IGF-2 was not administered). All the treated mice maintained normoglycemia for at least 50 days following treatment. In another exemplary experiment, db/db mice were treated with a 12,000 μg/kg daily dose for 35 days with 35 days of follow up (during which IGF-2 was not administered). All the treated mice maintained normoglycemia for 35 days following treatment.

The subject of another data set is NOD mice. Description: Incidence of spontaneous autoimmune type 1 diabetes in NOD mice treated with IGF-2. The class given is in vivo. Here is the method: Non-Obese Diabetic (NOD) mice are a polygenic model for spontaneous autoimmune type 1 diabetes (T1D). NOD mice have an elevated risk for development of autoimmune type 1 diabetes. Thus, NOD mice were used to determine whether treatment IGF-2 reduces spontaneous development of type 1 diabetes.
In this experiment, one group of NOD mice (right panel) was injected with 3000 μg/kg of IGF-2 on each of 76 consecutive days, and a second group of NOD mice (left panel) was injected with saline. […] More specifically, at the end of the 76 days of treatment, only two of the treated mice had developed high glucose levels.
FIG. 30A depicts how many NOD mice have developed autoimmune type I diabetes during an initial 66 days of treatment with IGF-2, and at various intervals post-treatment. In this experiment, one group of NOD mice was injected with 3000 μg/kg of IGF-2 on each of 66 consecutive days, and a second group of NOD mice was injected with saline.
In one exemplary experiment, NOD mice were treated with a 3000 μg/kg daily doses of IGF-2 for 150 days. ⅘ of the treated mice maintained normoglycemia compared to ¼ of the control mice. In another exemplary experiment, NOD mice were treated with a 3000 μg/kg daily dose of IGF-2 for 75 days with follow-up glucose measurements taken for an additional 90 days (during which IGF-2 was not administered). ⅝ of the treated mice maintained normoglycemia compared to 2/11 of the control mice. The average insulin secretion of the treated mice in both of these experiments was five times greater than the control mice.

Data set [3] deals with human pancreatic islet cells. Kind of data set: Insulin secretion of human pancreatic islet cells in response to a glucose pulse. The following applies: IGF-2 50 nM for four days. The data set is classed as cell-based.
Another data set relates to Beta-TC-6 cells. Kind of data set: Insulin secretion assay using Beta-TC-6 cells. The class given is cell-based. Conditions: 2 hours, 500 mM of each peptide, Mouse Insulin ELISA. Here is the method: To evaluate insulin secretion in response to peptide treatment, Beta-TC-6 cells were plated in 96-well culture plates at a density of 8×10^4 cells per well. After 48 hours of incubation, the cells were washed and preincubated in serum-free medium for 1 hour. Following this, cells were treated for 2 hours with 200 μl of serum-free medium supplemented with […] of each peptide. After the treatment period, the induction medium was collected and stored at −80° C. until analysis. Insulin levels in the collected medium were measured using the Mercodia Mouse Insulin ELISA Kit (#10-1247-01) according to the manufacturer's instructions. […] Results appear in FIG. 36.

In a further data set the test system is C57BL/6 STZ mice. Kind of data set: Fasting blood glucose in STZ-induced diabetic C57BL/6 mice treated with IGF-2. The class given is in vivo. The following applies: IGF-2 12,000 μg/kg daily on each of 12 consecutive days.
Setting [4] is: single 800 μg/kg dose injected intraperitoneally.

For insulin-like growth factor 2 [IGF-2], in the data set with STZ-treated mice [1] (800 μg/kg dose, 240 minute time course), the “Free IGF-2 levels relative to total IGF-2” value is reported as “a small fraction of the total IGF-2 concentration”. For the same substance, the “Blood glucose level reached from hyperglycemic 300-500 mg/dl” value with STZ-treated mice [1] (setting [4]) fell in the range of 100 to 200 mg/dL. In addition, the “Period of normal blood glucose level after a single dose” value in the data set with STZ-treated mice [1] (setting [4]) is reported as “over four”. In addition, the “Increase in c-peptide levels” value in the data set on STZ-treated mice [2] (four STZ-treated mice) amounted to 12 fold. In addition, in the data set on STZ-treated mice [2] (permanently cured mice), the “Increase in serum insulin compared to STZ treated control mice” value is on record as 50%. In addition, the “14 hour fasting blood glucose levels” value in the data set on db/db mice (3000 μg/kg/day for 68 days, first group b178, second group b179) was “reduced blood glucose levels (14 hour fasting blood glucose levels) to a normal range even after the end of the 68 day treatment period”; with db/db mice (12000 μg/kg daily in two injections per day for 35 days), “reduced blood glucose levels (14 hour fasting blood glucose levels) to a normal range even after the end of the 35 day treatment period”; in the data set with db/db mice (12000 μg/kg daily in two injections per day for 70 days), “reduced blood glucose levels (14 hour fasting blood glucose levels) to a normal range even after the end of the 70 day treatment period”; in the data set on db/db mice (12000 μg/kg/day for 66-68 days, first group b178, second group b179), “reduced blood glucose levels (14 hour fasting blood glucose levels) to a normal range even after the end of the 68 day treatment period”. Moreover, the “Time all treated mice maintained normoglycemia following treatment” value with db/db mice (12,000 μg/kg daily for 35 days, 35 days of follow up) is 35 days; in the data set on db/db mice (12,000 μg/kg daily for 70 days, 70 days of follow up), “at least 50 days”. Further, the “Fraction of the treated mice that maintained normoglycemia” value was “⅝” in the data set on NOD mice (3000 μg/kg daily for 75 days, follow-up for an additional 90 days) and “⅘” with NOD mice (3000 μg/kg daily for 150 days). The “Incidence of spontaneous autoimmune type 1 diabetes” value in the data set on NOD mice (3000 μg/kg on each of 66 consecutive days and post-treatment) is listed as “significantly reduced”. The “Incidence of spontaneous autoimmune attack” value in the data set on NOD mice (3000 μg/kg on each of 76 consecutive days) was “reduced dramatically”. For the same substance, the “Number of treated mice that had developed high glucose levels” value in the data set on NOD mice (at the end of the 76 days of treatment with 3000 μg/kg) is recorded as “two”. Besides, the “Increase in insulin secretion in response to a glucose pulse compared to untreated cells” value in data set [3] was about 50%. Besides, the “Insulin secretion compared to the control” value with Beta-TC-6 cells is on record as “enhanced insulin secretion compared to the control”. The “Long-term improvements in blood glucose levels” value with C57BL/6 STZ mice is “long-term improvements in blood glucose levels were obtained”.
